From patent publication US12012412B2, “Solid forms of pyrazolo[3,4-d]pyrimidine compounds” (Pfizer Inc., priority 2021, dated 2024)
In brackets after ≈: the same amount, converted by molar mass. Each block holds one molecule with its values, some of them ahead of it.

Assays:
Type in all cases: physicochemical
[1] = Particle size of batches of Solid Form A; details: batches of Solid Form A, milled or unmilled per batch
Description: Primary particles from below 100 μm to around 500 μm in size, with soft agglomerates up to several millimeters, were observed. The D[4,3] of this material was 195 μm. This material was subsequently milled, to give far fewer large particles and an overall much smaller average primary particle size, giving a D[4,3] of 49.5 μm. See Table 8 for a comparison of particle size properties of various batches.

[2] = Solubility of Solid Form A and amorphous Compound X in various solvents at room temperature
[3] = True density of Solid Form A; details: lots of Solid Form A; A2 and A9 unmilled, A3 and A6/A7 milled
[4] = Mechanical properties of batches of Solid Form A; details: lots of Solid Form A; A2 and A9 unmilled, A3 and A6/A7 milled

Particle size D[4, 3] [1]: 78.6 μm
Particle size D[v, 0.1] [1]: 5.89 µm
Particle size D[v, 0.9] [1]: 179 µm
Particle size D[4, 3] ([1]; listed as A7): 85.1 μm
Particle size D[v, 0.1] ([1]; listed as A7): 6.17 µm
Particle size D[v, 0.9] ([1]; listed as A7): 191 µm
SMILES: CC1CN(Cc2ncccn2)CC1c1nc2c(cnn2C2CCOCC2)c(=O)[nH]1 (centres unmarked) [A6]

Solubility (mg/ml) ([2]; 1,2-Xylene): 19.9 mg/mL (≈ 50.3 mM)
Solubility (mmol) ([2]; 1,2-Xylene): 50 mmol
Solubility (mmol) ([2]; Acetone): >202 mmol
Solubility (mg/ml) ([2]; Chloroform): >92.3 mg/mL
Solubility (mmol) ([2]; Chloroform): >233 mmol
Solubility (mg/ml) ([2]; Dioxane): 27.9 mg/mL (≈ 70.5 mM)
Solubility (mmol) ([2]; Dioxane): 71 mmol
Solubility (mg/ml) ([2]; EtOAc): 20.6 mg/mL (≈ 52.1 mM)
Solubility (mmol) ([2]; EtOAc): 52 mmol
Solubility (mg/ml) ([2]; EtOH): >98.6 mg/mL
Solubility (mmol) ([2]; EtOH): >249 mmol
Solubility (mg/ml) ([2]; Glyme (1,2-Dimethoxyethane)): >113.2 mg/mL
Solubility (mmol) ([2]; Glyme (1,2-Dimethoxyethane)): >286 mmol
Solubility (mg/ml) ([2]; H2O (Water)): 64.8 mg/mL (≈ 164 mM)
Solubility (mmol) ([2]; H2O (Water)): 164 mmol
Solubility (mg/ml) ([2]; H2O-EtOH (Water/EtOH)): >26.8 mg/mL
Solubility (mmol) ([2]; H2O-EtOH (Water/EtOH)): >68 mmol
Solubility (mg/ml) ([2]; H2O-MeCN (Water/MeCN)): >75.6 mg/mL
Solubility (mmol) ([2]; H2O-MeCN (Water/MeCN)): >191 mmol
Solubility (mg/ml) ([2]; H2O-MeOH (Water/MeOH)): >42.5 mg/mL
Solubility (mmol) ([2]; H2O-MeOH (Water/MeOH)): >107 mmol
Solubility (mg/ml) ([2]; H2O-acetone (Water/acetone)): >130.3 mg/mL
Solubility (mmol) ([2]; H2O-acetone (Water/acetone)): >329 mmol
Solubility (mg/ml) ([2]; Heptane): 0.7 mg/mL (≈ 1.77 mM)
Solubility (mmol) ([2]; Heptane): 2 mmol
Solubility (mg/ml) ([2]; IPA): >85.9 mg/mL
Solubility (mmol) ([2]; IPA): >217 mmol
Solubility (mg/ml) ([2]; MTBE): 11.2 mg/mL (≈ 28.3 mM)
Solubility (mmol) ([2]; MTBE): 28 mmol
Solubility (mg/ml) ([2]; MeCN): >117.3 mg/mL
Solubility (mmol) ([2]; MeCN): >297 mmol
Solubility (mg/ml) ([2]; MeOH): >90.2 mg/mL
Solubility (mmol) ([2]; MeOH): >228 mmol
Solubility (mg/ml) ([2]; Nitromethane): >70.2 mg/mL
Solubility (mmol) ([2]; Nitromethane): >178 mmol
Solubility (mg/ml) ([2]; THF): 81.5 mg/mL (≈ 206 mM)
Solubility (mmol) ([2]; THF): 206 mmol
Solubility (mg/ml) ([2]; Toluene): 18.3 mg/mL (≈ 46.3 mM)
Solubility (mmol) ([2]; Toluene): 46 mmol
solubility ([2]; acetone, organic solvent or mixture): > 79.7 mg/mL
SMILES: C[C@@H]1CN(Cc2ncccn2)C[C@H]1c1nc2c(cnn2C2CCOCC2)c(=O)[nH]1 [amorphous Compound X, 6-((3S,4S)-4-methyl-1-(pyrimidin-2-ylmethyl)pyrrolidin-3-yl)-1-(tetrahydro-2H-pyran-4-yl)-1,5-dihydro-4H-pyrazolo[3,4-d]pyrimidin-4-one]

True density (g/cm3), Value [3]: 1.29 g/cm3
Brittle fracture index, Rating [4]: Low
Brittle fracture index, Value [4]: 0.022
Brittle/viscoelastic bonding index (x105), Value [4]: 5.3
Brittle/viscoelastic bonding index, Rating [4]: Poor
Compression stress (MPa), Value [4]: 56.3 MPa
Compression stress, Rating [4]: Moderate
Compromised Tensile strength (MPa), Value [4]: 0.393 MPa
Dynamic indentation hardness (MPa), Value [4]: 41.6 MPa
Dynamic indentation hardness [ductility rating], Rating [4]: Very high
Solid fraction, Value [4]: 0.85
Tensile strength (MPa), Value [4]: 0.41 MPa
Tensile strength, Rating [4]: Low
SMILES: CC1CN(Cc2ncccn2)CC1c1nc2c(cnn2C2CCOCC2)c(=O)[nH]1 (centres unmarked) [A6/A7]

Particle size D[4, 3] [1]: 24.1 μm
Particle size D[v, 0.1] [1]: 4.39 µm
Particle size D[v, 0.9] [1]: 52.5 µm
SMILES: CC1CN(Cc2ncccn2)CC1c1nc2c(cnn2C2CCOCC2)c(=O)[nH]1 (centres unmarked) [A4]

Particle size D[4, 3] [1]: 89.2 μm
Particle size D[v, 0.1] [1]: 6.86 µm
Particle size D[v, 0.9] [1]: 197 µm
SMILES: CC1CN(Cc2ncccn2)CC1c1nc2c(cnn2C2CCOCC2)c(=O)[nH]1 (centres unmarked) [A5]

Particle size D[4, 3] [1]: 49.5 μm
Particle size D[v, 0.1] [1]: 3.29 µm
Particle size D[v, 0.9] [1]: 129 µm
SMILES: CC1CN(Cc2ncccn2)CC1c1nc2c(cnn2C2CCOCC2)c(=O)[nH]1 (centres unmarked) [A10]

Particle size D[4, 3] [1]: 48.6 μm
Particle size D[v, 0.1] [1]: 3.96 µm
Particle size D[v, 0.9] [1]: 118 µm
SMILES: CC1CN(Cc2ncccn2)CC1c1nc2c(cnn2C2CCOCC2)c(=O)[nH]1 (centres unmarked) [A8]
